Experimental data as given in publication PMC5365648, “Pharmacokinetics of the Novel Echinocandin CD101 in Multiple Animal Species” (Antimicrobial Agents and Chemotherapy, 2017).
Read-outs that look alike come from different tables or passages of the source. Starred links: 1 amine or outer side, 2 acyl side, 3 side chain; linkers in the order of their positions; H or OH if unused. Positions of bridges follow the written chain, without caps; N, C: chain ends. Non-standard residues stand in square brackets, D forms with d. Residues, ends and D or L forms follow the SMILES beside them. *: point of attachment. Orn(4R-OH,5R-OCH2CH2NMe3+) = C[N+](C)(C)CCO[C@@H](N[*:3])[C@H](O)C[C@H](N[*:1])C(=O)[*:2]; pTerphenylCO(4''-OnC5H11) = CCCCCOc1ccc(-c2ccc(-c3ccc(C(=O)*)cc3)cc2)cc1; hTyr(3S-OH,4S-OH) = N[C@H](C(=O)O)[C@H](O)[C@@H](O)c1ccc(O)cc1; Pro(3S-OH,4S-Me) = C[C@H]1CN[C@H](C(=O)O)[C@H]1O; Hyp = O=C(O)[C@@H]1C[C@@H](O)CN1

What was measured:
[1] = Mouse pharmacokinetics, i.v. bolus; settings: in vivo, iv, male ICR (CD-1) mice, single 1 mg/kg slow i.v. bolus, plasma, LC-MS/MS, noncompartmental from mean profile, n = 3/time point
Description: (§1) A single 1-mg/kg dose of CD101 or anidulafungin was administered by slow i.v. bolus (∼2 min) to male ICR (CD-1) mice (n = 3/group/time point). Blood samples (via cardiac puncture) were collected for plasma processing predose and at 0.083 (5 min), 0.5, 1, 4, 8, 24, 48, and 72 h postdose. PK profiles were generated based on mean results from the three animals sampled at each time point. In another study, a single 1-, 4-, or 16-mg/kg dose of CD101 was administered by i.p. injection to female ICR (CD-1) mice (n = 3/time point/dose), and blood samples (via cardiac puncture) were drawn for plasma processing at 1, 3, 6, 12, 24, 48, 72, and 96 h postdose.
(§2) For each of the pharmacokinetic studies, whole-blood samples (K3EDTA as anticoagulant) were collected and centrifuged within 30 min of collection. The resulting plasma was harvested and stored at −20°C until analysis. Tissue samples were homogenized by a bead-based homogenizer following the addition of deionized water to excised tissue in a 2:1 (vol/wt) ratio and stored at −20°C until analysis. Prior to analysis, plasma or homogenized tissue samples were quenched with acetonitrile (3:1, acetonitrile-plasma or tissue ratio) containing an appropriate internal standard (isotopically labeled d9-CD101 [mouse and rat] or a structural analog [dog, monkey, and chimpanzee]). Plasma and tissue homogenate concentrations (quantified against calibration standards processed the same way) were determined by reverse-phase, gradient liquid chromatography with tandem mass spectrometric detection (LC-MS/MS) using an AB-SCIEX API 3200Q/4000 mass spectrometry system. Calibration standard ranges were the following: 0.400 (lower limit of quantitation, [LLOQ]) to 200 μg/ml (CD101, mouse), 0.040 (LLOQ) to 10 μg/ml (anidulafungin, mouse), 0.002 (LLOQ) to 10 μg/ml (CD101, rat), 0.005 (LLOQ) to 10 μg/ml (anidulafungin, rat), 0.050 (LLOQ) to 10 μg/ml (CD101, dog), 0.020 (LLOQ) to 10 μg/ml (anidulafungin, dog), 0.010 (LLOQ) to 10 μg/ml (CD101, monkey), 0.001 (LLOQ) to 10 μg/ml (anidulafungin, monkey), 0.015 (LLOQ) to 10 μg/ml (CD101, chimpanzee), and 0.015 (LLOQ) to 10 μg/ml (anidulafungin, chimpanzee). When necessary, dilutions with blank matrix were made for samples that quantified above the upper limit of quantitation. The methods used in the analysis were qualified as fit for purpose: calibration standards were matrix matched with the exception that human plasma calibration standards were used to analyze chimpanzee plasma samples due to the rarity of blank chimpanzee plasma, and, for each analytical batch, triplicate calibration standards were included at the beginning, approximately in the middle, and at the end of the batch. Following analysis, quantitation was carried out by a calibration curve comprising the analyte/internal standard area ratio versus concentration. Analytical batch acceptance followed the general guidance that triplicate standards/quality controls be within ±20% for accuracy (percentage of nominal concentration) and ≤20% for precision (percent coefficient of variation).
(§3) Pharmacokinetic parameters were calculated by noncompartmental analysis using Phoenix WinNonlin (version 6.3; Pharsight, Mountain View, CA) from either individual or mean (mouse) concentration-time profiles. An unpaired t test was used to compare mean exposures from male and female rats.

[2] = Mouse pharmacokinetics, i.p. injection; settings: in vivo, ip, female ICR (CD-1) mice, plasma, LC-MS/MS, noncompartmental from mean profile, n = 3/time point
Description: as §1, §2, §3

[3] = Excretion in bile duct-cannulated rats; assay type: in vivo, Sprague-Dawley rats; settings: for dose excreted at 120 h: bile duct-cannulated male Sprague-Dawley rats, single 5 mg/kg i.v. bolus, over 5 days, n = 3
Description: In one of three rat studies reported here, a single 5-, 15-, or 45-mg/kg dose of CD101 was administered by slow i.v. bolus (∼3 min) to Sprague-Dawley rats (n = 3 to 5/dose). Blood samples (via jugular vein catheter [JVC]) were drawn for plasma processing at 0.083, 0.25, 0.5, 1, 2, 4, 8, 24, 48, 120, 168, and 240 h after dosing. In the second rat study, conducted to assess tissue distribution, a single 5-mg/kg dose of CD101 was administered by slow i.v. bolus (∼3 min) to male Sprague-Dawley rats (n = 3 animals/time point). Blood samples (via cardiac puncture) were collected for plasma processing predose and at 0.083, 0.5, 1, 2, 4, 8, 24, 48, 72, 96, and 120 h postdose. In parallel with blood collection, animals were euthanized, and tissues (liver, lungs, kidneys, heart, spleen, and brain) were excised and frozen prior to analysis. In the third rat study, conducted to assess excretion, a single 5-mg/kg dose of CD101 was administered by slow i.v. bolus (∼3 min) to bile duct-cannulated male Sprague-Dawley rats (n = 3). Bile samples were collected from each animal into prelabeled bile collection tubes predose and at 0 to 8, 8 to 24, 24 to 48, 48 to 72, 72 to 96, and 96 to 120 h postdose; urine samples were collected from each animal at the same time points pre- and postdose.
as §2, with “Analytical batch acceptance followed the general guidance that triplicate standards/quality controls be within ±20% for accuracy (percentage of nominal concentration) and ≤20% for precision (percent coefficient of variation).” left out

[4] = human plasma; ref [9]; cited from earlier work
Text: In the case of brain concentrations, there was little difference across all the collection intervals. Given the relatively low concentrations and small differences across times, measured concentrations may reflect contamination from residual whole blood during the collec ...

CCCCCOc1ccc(-c2ccc(-c3ccc(C(=O)N[C@H]4C[C@@H](O)[C@@H](OCC[N+](C)(C)C)NC(=O)[C@@H]5[C@@H](O)[C@@H](C)CN5C(=O)[C@H]([C@@H](C)O)NC(=O)[C@H]([C@H](O)[C@@H](O)c5ccc(O)cc5)NC(=O)[C@@H]5C[C@@H](O)CN5C(=O)[C@H]([C@@H](C)O)NC4=O)cc3)cc2)cc1 [CD101] ({pTerphenylCO(4''-OnC5H11)}-[Orn(4R-OH,5R-OCH2CH2NMe3+)]T[Hyp][hTyr(3S-OH,4S-OH)]T[Pro(3S-OH,4S-Me)]; lactam 1-C)
AUC(0-inf) [1]: 166 µg·h/mL | AUC(0-t) [1]: 87.3 µg·h/mL | Cmax [1]: 9290 ng/mL | Tmax [1]: 4.98 min | half-life [1]: 25.2 h | clearance ([1]; read-out: CL (clearance)): 0.102 mL/min/kg | Vd ([1]; read-out: Vss (volume of distribution at steady state)): 0.206 L/kg | AUC(0-inf) ([2]; single 1 mg/kg i.p.): 88.9 µg·h/mL | AUC(0-t) ([2]; single 1 mg/kg i.p.): 59.6 µg·h/mL | Cmax ([2]; single 1 mg/kg i.p.): 3970 ng/mL | Tmax ([2]; single 1 mg/kg i.p.): 1 h | half-life ([2]; single 1 mg/kg i.p.): 71.1 h | AUC(0-inf) ([2]; single 4 mg/kg i.p.): 313 µg·h/mL | AUC(0-t) ([2]; single 4 mg/kg i.p.): 245 µg·h/mL | Cmax ([2]; single 4 mg/kg i.p.): 13600 ng/mL | Tmax ([2]; single 4 mg/kg i.p.): 1 h | half-life ([2]; single 4 mg/kg i.p.): 44.5 h | AUC(0-inf) ([2]; single 16 mg/kg i.p.): 1200 µg·h/mL | AUC(0-t) ([2]; single 16 mg/kg i.p.): 902 µg·h/mL | Cmax ([2]; single 16 mg/kg i.p.): 52000 ng/mL | Tmax ([2]; single 16 mg/kg i.p.): 1.67 h | half-life ([2]; single 16 mg/kg i.p.): 60.8 h | dose excreted ([3]; male, Sprague-Dawley, rat, bile plus faeces, iv, bile duct-cannulated rats, 5 mg/kg i.v., bile plus feces): ~50% | biotransformation in plasma, bile samples, and excreta ([3]; nonradiolabeled material, rats, data not shown): no biotransformation was observed | dose excreted at 120 h ([3]; rat, faeces, iv, intact drug, read-out: mean cumulative amount excreted into feces, % of total dose): 27.7% | dose excreted at 120 h ([3]; rat, iv, intact drug, read-out: mean cumulative amount excreted into bile, % of total dose): 22.6% | dose excreted at 120 h ([3]; rat, urine, iv, read-out: total dose recovered in urine): 1.4% | protein bound [4]: 98.7%
